# Experimental data from article PMC6934184, “Selective DNA-PKcs inhibition extends the therapeutic index of localized radiotherapy and chemotherapy” (The Journal of Clinical Investigation, 2019).
# Target: T1, TEK (TIE2) Y1108F (Homo sapiens, UniProt Q02763, Y1108F)
# T1 construct: purchased Thermo Fisher Scientific (Life Technologies) SelectScreen
# Assay: SelectScreen LanthaScreen
# Format: binding
# Conditions: read-out: % displacement
# Outline: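 Percent values come from Thermo SelectScreen profiling of NU5455, combining activity and binding assays. CSF1R was run in Z'LYTE format at Km app ATP, and CAMK1 in Adapta format with ATP listed at 10.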
# T1 sequence (Q02763 23-1124 Y1108F): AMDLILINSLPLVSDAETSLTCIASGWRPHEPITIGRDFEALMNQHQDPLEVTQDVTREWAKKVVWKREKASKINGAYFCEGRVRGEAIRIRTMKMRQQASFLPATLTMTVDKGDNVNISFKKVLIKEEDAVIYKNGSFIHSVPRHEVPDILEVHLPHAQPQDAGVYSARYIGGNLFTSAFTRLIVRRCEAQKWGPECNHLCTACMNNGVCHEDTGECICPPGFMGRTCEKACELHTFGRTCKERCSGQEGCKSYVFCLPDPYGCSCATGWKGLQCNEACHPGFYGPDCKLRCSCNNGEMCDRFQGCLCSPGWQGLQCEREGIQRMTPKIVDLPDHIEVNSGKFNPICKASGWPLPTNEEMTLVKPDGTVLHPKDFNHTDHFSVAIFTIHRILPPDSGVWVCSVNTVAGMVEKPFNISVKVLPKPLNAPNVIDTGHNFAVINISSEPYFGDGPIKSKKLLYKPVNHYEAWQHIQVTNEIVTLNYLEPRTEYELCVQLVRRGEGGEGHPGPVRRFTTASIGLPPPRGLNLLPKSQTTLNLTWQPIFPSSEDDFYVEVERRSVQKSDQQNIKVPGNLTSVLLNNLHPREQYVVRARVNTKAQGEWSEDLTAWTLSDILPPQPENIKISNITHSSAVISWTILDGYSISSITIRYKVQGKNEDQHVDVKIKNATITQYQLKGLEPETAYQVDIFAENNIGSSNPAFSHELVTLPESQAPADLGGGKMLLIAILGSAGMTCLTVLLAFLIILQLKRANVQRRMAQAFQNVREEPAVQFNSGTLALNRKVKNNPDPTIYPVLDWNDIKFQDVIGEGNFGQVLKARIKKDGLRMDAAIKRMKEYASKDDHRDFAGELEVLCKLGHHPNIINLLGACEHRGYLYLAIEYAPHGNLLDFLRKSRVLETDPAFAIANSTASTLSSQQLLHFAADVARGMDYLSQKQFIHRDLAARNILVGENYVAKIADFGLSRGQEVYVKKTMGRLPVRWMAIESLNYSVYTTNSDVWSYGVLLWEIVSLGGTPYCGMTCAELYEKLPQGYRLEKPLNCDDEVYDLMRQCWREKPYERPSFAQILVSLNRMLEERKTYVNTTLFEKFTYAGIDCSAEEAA
structure (smiles),measurement,value
CN(C(=O)CN1CCOCC1)c1ccc2sc3c(-c4cccc5c(=O)cc(N6CC7CCC(C6)O7)oc45)cccc3c2c1 [NU5455],inhibition at 1 µM,-0.3%
